Test results as given in patent EP0250254A1, “Cis & trans stilbenes and their composition for the treatment of hypertension” (McNeilab, Inc., priority 1986, dated 1987).
Where a name gives a salt, the structure may show the parent alone. Read-outs that look alike come from different tables or passages of the source. Marks after values point to notes of the source that are not given here.

Assays:
[1] = tested on: coronary arteries; experiment: Langendorff's isolated heart preparation, increase in coronary flow; conditions: read-out: EC30 (minimum concentration needed to elicit a 30 percent increase in coronary flow)
Method: In addition to their utility in the treatment of hypertension, the compounds of formula (I) are useful in the treatment of the symptoms of angina pectoris by virtue of their ability to dilate coronary arteries. Their activity was measured using the "Langendorff's isolated heart" preparation. This test has been described in "Pharmacological Experiments on Isolated Preparations", Staff of the Department of Pharmacology, University of Edinborough, 2nd Ed., Churchill Livingstone, N.Y., l970, pp. ll2-ll9. The test compounds were administered at concentrations of 3000, l000, 300, l00, 30, l0, 3, l and 0.3 nanomolar (l0⁻⁹ molar).
The minimum concentration (EC₃₀) needed to elicit a 30 percent increase in coronary flow is shown in Table I for compounds of the formula (I) with […].

[2] = tested on: spontaneously hypertensive rats; experiment: Spontaneously Hypertensive Rat (SHR) test, arterial pressure monitored via aortic cannula; assay type: in vivo; conditions: SH rats
Method: The activity of compounds of formula (I) for the treatment of hypertension was determined using the Spontaneously Hypertensive Rat (SHR) test as described below.
In this test, the arterial pressure of adult spontaneously hypertensive rats (Charles River) is monitored directly via an aortic cannula. The SH rats are anesthetized with an intravenous anesthetic (methohexital). The left carotid artery is isolated and cannulated. The tip of the cannula is advanced to the aorta and the cannula is exteriorized behind the neck at the level of the scapula. Animals are placed in individual cages and allowed to recover from the anesthetic and are kept unrestrained. The arterial cannula is connected to the pressure transducer which is attached to the recorder. The test compounds are administered to at least 3 rats at doses selected in the range of 0.l to l00 mg/kg of body weight by intraperitoneal (i.p.) or oral (p.o.) routes of administration. The arterial pressure and heart rate are monitored for a minimum of 22 hours. A test compound is considered to be active as an antihypertensive agent if the mean arterial pressure (MAp) indicates a fall of >l5 mm of Hg. Each animal serves as its own control.
The results of this test for compounds of formula (I). expressed as "Max Fall Bp" (Maximum Fall in Mean Arterial pressure) are shown in Table I.

[3] = dose 30 mg/kg of body weight p.o., salt form tested per footnotes

Row | Compound | EC30 ([1]; salt form tested per footnotes) | Max Fall BP (Maximum Fall in Mean Arterial pressure) [2, 3] | Max Fall BP (Maximum Fall in Mean Arterial pressure) ([2]; dose 10 mg/kg of body weight given i.p., tested as the fumarate salt) | Max Fall BP (Maximum Fall in Mean Arterial pressure) ([2]; dose 10 mg/kg of body weight p.o., tested as the chloride salt) | EC30 ([1]; tested as free base)
1 | COc1ccc(/C=C\c2ccccc2)c(CC(C)NCCc2c(Cl)cccc2Cl)c1 (stereo not drawn) [Example 2d, N-[2-(2,6-Dichlorophenyl)ethyl]-5-methoxy-α-methyl-2Z-(2-phenylethenyl)benzeneethanamine (E)-2-Butenedioate (2:l)] | 55 nM | 18 (30) mm of Hg | – | – | –
2 | COc1cc(CCNC(C)Cc2cc(OC)ccc2/C=C\c2ccccc2)cc(OC)c1 (stereo not drawn) [Example 3c, N-[2-(3,5-Dimethoxyphenyl)ethyl]-5-methoxy-α-methyl-2Z-(2-phenylethenyl)benzeneethanamine (E)-2-Butenedioate (2:l)] | 57 nM | – | 38 (10)^b mm of Hg | – | –
3 | COc1ccc(/C=C\c2ccccc2)c(CC(C)NCCc2ccc(OC)c(OC)c2)c1 (stereo not drawn) [Example 4c, N-[2-(3,4-Dimethoxyphenyl)ethyl]-5-methoxy-α-methyl-2Z-(2-phenylethenyl)benzeneethanamine Hydrochloride] | 2 nM | 21 (30) mm of Hg | – | – | –
4 | COc1ccc(/C=C/c2ccccc2)c(CCC(C)N(C)CCc2ccc(OC)c(OC)c2)c1 (stereo not drawn) [Example 5, N-[2-(3,4-Dimethoxyphenyl)ethyl]-5-methoxy-N,α-dimethyl-2E-(2-phenylethenyl)benezenepronanamine Hydrochloride] | 12 nM | 43 (30) mm of Hg | – | – | –
5 | COc1ccc(/C=C\c2ccccc2)c(CCC(C)N(C)CCc2ccc(OC)c(OC)c2)c1 (stereo not drawn) [Example 6e, N-[2-(3,4-Dimethoxyphenyl)ethyl]-5-methoxy-N,α-dimethyl-2Z-(2-phenylethenyl)benzenepropanamine (E)-2-Butenedioate (2:l)] | 19 nM | 17 (30) mm of Hg | – | – | –
6 | COc1ccc(/C=C/c2ccccc2)c(CCCN(C)CCc2ccc(OC)c(OC)c2)c1 [Example 7e, N-[2-(3,4-Dimethoxyphenyl)ethyl]-5-methoxy-N-methyl-2E-(2-phenylethenyl)benzenepropanamine Biscyclohexylsulfamate] | 0.4 nM | 16 (30) mm of Hg | – | – | –
7 | COc1ccc(/C=C/c2ccccc2)c(CC(C)NCCc2ccc(OC)c(OC)c2)c1 (stereo not drawn) [Example 8b, N-[2-(3,4-Dimethoxyphenyl)ethyl]-5-methoxy-α-methyl-2E-(2-phenylethenyl)benzeneethanamine Hydrochloride] | 1 nM | 77 (30) mm of Hg | – | 80 (10) mm of Hg | –
8 | COc1ccc(/C=C/c2ccccc2)c(CC(C)NCCc2ccc(Cl)c(Cl)c2)c1 (stereo not drawn) [Example 9, N-[2-(3,4-Dichlorophenyl)ethyl)-5-methoxy-α-methyl-2E-(2-phenylethenyl)benzeneethanamine Hydrochloride] | 24 nM | 90 (30) mm of Hg | – | – | –
9 | COc1cc(CCNC(C)Cc2cc(OC)ccc2/C=C/c2ccccc2)cc(OC)c1 (stereo not drawn) [Example 10, N-[2-(3,5-Dimethoxyphenyl)ethyl]-5-methoxy-α-methyl-2E-(2-phenylethenyl)benzeneethanamine (E)-2-Butendioate (3:5)] | – | 53 (30)* mm of Hg | – | – | 1 nM
